The target in one assay is human RAF1 (Homo sapiens, UniProt P04049). Briefly: Protein kinase assay (33P-ATP filter binding), human RAF1, 10-dose IC50. In kind it is biochemical. Conditions: MEK1 (K97R) substrate 3 micromolar, ATP 10 micromolar, read-out: RAF-1 IC50. The method, boiled down: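 Radiometric filter-binding format: 10 µM ATP, 3 µM MEK1 (K97R) as substrate for human RAF1, 2 hr at room temperature in 20 mM HEPES pH 7.5 with 10 mM MgCl2. Compounds were dispensed acoustically from DMSO. IC50 came from percent kinase activity relative to vehicle over a 10-dose series.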

A further assay concerns the target human BRAF (Homo sapiens, UniProt P15056). In words: Protein kinase assay (33P-ATP filter binding), human BRAF, 10-dose IC50. In kind it is biochemical. Conditions: MEK1 (K97R) substrate 1 micromolar, ATP 25 micromolar, read-out: B-RAF IC50. How it is done: Protein kinase assay: Assay platform was used to measure kinase/inhibitor interactions as described previously (Anastassiadis et al., 2011). In brief, for each reaction, kinase and substrate were mixed in a buffer containing 20 mM HEPES (pH 7.5), 10 mM MgCl2, 1 mM EGTA, 0.02% Brij35, 0.02 mg/mL BSA, 0.1 mM Na3VO4, 2 mM DTT, and […]. All compounds were solubilized in DMSO. Compounds were then added to each reaction mixture via acoustic dispense using an ECHO 550 nanoliter dispenser. For human RAF1 testing, human MEK1 (K97R) was used as a substrate at a concentration of 3 micromolar, with a final ATP concentration of 10 micromolar. For human BRAF testing, human MEK1 (K97R) was used as a substrate at 1 micromolar concentration, with a final ATP concentration of 25 micromolar. […] After a 20-min incubation, ATP (Sigma-Aldrich, St. Louis, Mo. 63178) and [g33P] ATP (specific activity 10 microCi/microliter) purchased at PerkinElmer (Boston, Mass., 02118 Cat #BLU 003H250UC) were added at a final total concentration of […]. Reactions were carried out at room temperature for 2 hr and spotted onto P81 ion exchange cellulose chromatography paper (Reaction Biology). Filter paper was washed in 0.75% phosphoric acid to remove unincorporated ATP. The percent remaining kinase activity relative to a vehicle-containing (DMSO) kinase reaction was calculated for each kinase/inhibitor pair. IC50 values were calculated using Prism 5 (GraphPad).

Bounds are passed on as bounds.

The IC50 is the point on the concentration scale where inhibition reaches its midpoint.

Sequence of human RAF1 (P04049 whole entry): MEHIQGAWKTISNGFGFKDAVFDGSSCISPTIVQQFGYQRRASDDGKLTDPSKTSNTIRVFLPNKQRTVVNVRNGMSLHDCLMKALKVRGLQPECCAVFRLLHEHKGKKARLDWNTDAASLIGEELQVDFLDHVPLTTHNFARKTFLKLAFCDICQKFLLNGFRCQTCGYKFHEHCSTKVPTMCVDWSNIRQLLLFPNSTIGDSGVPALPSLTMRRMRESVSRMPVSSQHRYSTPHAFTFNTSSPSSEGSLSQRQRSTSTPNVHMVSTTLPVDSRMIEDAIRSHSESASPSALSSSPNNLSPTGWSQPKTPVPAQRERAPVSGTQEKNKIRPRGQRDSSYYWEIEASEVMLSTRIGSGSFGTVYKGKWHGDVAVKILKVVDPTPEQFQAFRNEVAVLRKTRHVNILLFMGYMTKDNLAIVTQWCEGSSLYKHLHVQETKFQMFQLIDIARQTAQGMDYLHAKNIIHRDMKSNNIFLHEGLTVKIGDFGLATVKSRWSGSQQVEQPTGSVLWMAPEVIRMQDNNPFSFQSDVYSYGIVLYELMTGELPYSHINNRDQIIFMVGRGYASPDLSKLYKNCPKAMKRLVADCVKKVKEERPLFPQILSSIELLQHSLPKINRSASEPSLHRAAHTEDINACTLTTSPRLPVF
Sequence of human BRAF (P15056 whole entry): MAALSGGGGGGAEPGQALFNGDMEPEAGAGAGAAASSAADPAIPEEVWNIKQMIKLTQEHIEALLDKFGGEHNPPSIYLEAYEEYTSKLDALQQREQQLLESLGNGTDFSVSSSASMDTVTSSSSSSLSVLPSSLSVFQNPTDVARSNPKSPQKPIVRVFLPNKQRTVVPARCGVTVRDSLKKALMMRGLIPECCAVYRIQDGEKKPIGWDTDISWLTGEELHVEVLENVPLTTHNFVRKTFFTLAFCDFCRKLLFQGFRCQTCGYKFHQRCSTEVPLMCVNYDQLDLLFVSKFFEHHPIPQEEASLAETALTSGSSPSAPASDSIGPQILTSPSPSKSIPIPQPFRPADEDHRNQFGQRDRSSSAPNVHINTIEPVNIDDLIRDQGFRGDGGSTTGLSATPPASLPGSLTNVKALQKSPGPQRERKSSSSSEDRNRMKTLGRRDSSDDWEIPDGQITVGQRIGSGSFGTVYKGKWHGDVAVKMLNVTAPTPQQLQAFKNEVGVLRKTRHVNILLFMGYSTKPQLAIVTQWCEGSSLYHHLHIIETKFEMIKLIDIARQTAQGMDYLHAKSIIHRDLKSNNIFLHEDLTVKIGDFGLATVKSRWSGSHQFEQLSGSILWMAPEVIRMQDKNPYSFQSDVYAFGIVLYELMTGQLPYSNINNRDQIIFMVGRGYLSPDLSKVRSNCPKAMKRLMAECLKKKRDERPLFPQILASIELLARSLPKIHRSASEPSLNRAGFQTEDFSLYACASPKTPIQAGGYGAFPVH

For the molecule `Cc1cc(F)c(NC(=O)N2CCC(C(F)(F)F)C2)cc1-c1cc(OCCO)nc(N2CCOCC2)c1` (racemic) [Example 3, (RS)-N-(2-fluoro-5-(2-(2-hydroxyethoxy)-6-morpholinopyridin-4-yl)-4-methylphenyl)-3-(trifluoromethyl)pyrrolidine-1-carboxamide], the IC50 on human RAF1 was less than 10 nM; at human BRAF, 10 to 100 nM.
Turning to `Cc1cc(F)c(NC(=O)N2CCCC(C(F)(F)F)C2)cc1-c1cc(OCCO)nc(N2CCOCC2)c1` (racemic) [Example 4, (RS)-N-(2-fluoro-5-(2-(2-hydroxyethoxy)-6-morpholinopyridin-4-yl)-4-methylphenyl)-3-(trifluoromethyl)piperidine-1-carboxamide], the IC50 at human RAF1 was less than 10 nM; at human BRAF, 10 to 100 nM.
Turning to `Cc1cc(F)c(NC(=O)N2CCC(C(C)(C)C)C2)cc1-c1cc(OCCO)nc(N2CCOCC2)c1` (racemic) [Example 5, (RS)-3-(tert-butyl)-N-(2-fluoro-5-(2-(2-hydroxyethoxy)-6-morpholinopyridin-4-yl)-4-methylphenyl)pyrrolidine-1-carboxamide], the values for the IC50 on human RAF1 and on human BRAF were less than 10 nM and 10 to 100 nM, respectively.
The corresponding values for `Cc1cc(F)c(NC(=O)N2CCNC(C(F)(F)F)C2)cc1-c1cc(OCCO)nc(N2CCOCC2)c1` (racemic) [Example 7, (RS)-N-(2-fluoro-5-(2-(2-hydroxyethoxy)-6-morpholinopyridin-4-yl)-4-methylphenyl)-3-(trifluoromethyl)piperazine-1-carboxamide] are less than 10 nM and 100 to 1000 nM.
For `Cc1cc(F)c(NC(=O)N2CCCC(C(C)(C)C)C2)cc1-c1cc(OCCO)nc(N2CCOCC2)c1` (racemic) [Example 8, (RS)-3-(tert-butyl)-N-(2-fluoro-5-(2-(2-hydroxyethoxy)-6-morpholinopyridin-4-yl)-4-methylphenyl)piperidine-1-carboxamide], the concentration for half-maximal inhibition (IC50) on human RAF1 is less than 10 nM; on human BRAF it was 10 to 100 nM.
Consider `Cc1cc(F)c(NC(=O)N2CCOC(C(F)(F)F)C2)cc1-c1cc(OCCO)nc(N2CCOCC2)c1` (racemic) [Example 10, (RS)-N-(2-fluoro-5-(2-(2-hydroxyethoxy)-6-morpholinopyridin-4-yl)-4-methylphenyl)-2-(trifluoromethyl)morpholine-4-carboxamide], for which the values for the IC50 on human RAF1 and on human BRAF were less than 10 nM and 10 to 100 nM, respectively.
As for `Cc1cc(F)c(NC(=O)N2CCNC(C(C)(C)C)C2)cc1-c1cc(OCCO)nc(N2CCOCC2)c1` (racemic) [Example 11, (RS)-3-(tert-butyl)-N-(2-fluoro-5-(2-(2-hydroxyethoxy)-6-morpholinopyridin-4-yl)-4-methylphenyl)piperazine-1-carboxamide], the IC50 fell in the range of 10 to 100 nM on human RAF1 and 100 to 1000 nM on human BRAF.
As for `Cc1cc(F)c(NC(=O)N2CC[C@@H](C(F)(F)F)C2)cc1-c1cc(OCCO)nc(N2CCOCC2)c1` [Example 1, (R)-N-(2-fluoro-5-(2-(2-hydroxyethoxy)-6-morpholinopyridin-4-yl)-4-methylphenyl)-3-(trifluoromethyl)pyrrolidine-1-carboxamide], the values for the IC50 at human RAF1 and on human BRAF were less than 10 nM and 10 to 100 nM, respectively.
Turning to `Cc1cc(F)c(NC(=O)N2CC[C@H](C(F)(F)F)C2)cc1-c1cc(OCCO)nc(N2CCOCC2)c1` [Example 2, (S)-N-(2-fluoro-5-(2-(2-hydroxyethoxy)-6-morpholinopyridin-4-yl)-4-methylphenyl)-3-(trifluoromethyl)pyrrolidine-1-carboxamide], the figures for the IC50 at human RAF1 and on human BRAF were less than 10 nM and 10 to 100 nM, respectively.
`Cc1cc(F)c(NC(=O)NCCC(C)(C)C)cc1-c1cc(OCCO)nc(N2CCOCC2)c1` [Example 6, 1-(3,3-dimethylbutyl)-3-(2-fluoro-5-(2-(2-hydroxyethoxy)-6-morpholinopyridin-4-yl)-4-methylphenyl)urea]: the IC50 at human RAF1 is less than 10 nM; at human BRAF it was 10 to 100 nM.
Take `Cc1cc(F)c(NC(=O)N2CCOC(C(C)(C)C)C2)cc1-c1cc(OCCO)nc(N2CCOCC2)c1` (stereo not shown) [Example 9, 2-(tert-butyl)-N-(2-fluoro-5-(2-(2-hydroxyethoxy)-6-morpholinopyridin-4-yl)-4-methylphenyl)morpholine-4-carboxamide]: the IC50 on human RAF1 was less than 10 nM; at human BRAF it was 10 to 100 nM.
`Cc1ccc(NC(=O)N2CC[C@@H](CC(F)(F)F)C2)cc1-c1cc(OC2(CO)CC2)nc(N2CCOCC2)c1` [Example 231, (S)-N-(3-(2-(1-(hydroxymethyl)cyclopropoxy)-6-morpholinopyridin-4-yl)-4-methylphenyl)-3-(2,2,2-trifluoroethyl)pyrrolidine-1-carboxamide]: the IC50 at human RAF1 was less than 10 nM.
With `Cc1ccc(NC(=O)N2CC[C@@H](CC(F)(F)F)C2)cc1-c1cc(OC(C)(C)CO)nc(N2CCOCC2)c1` [Example 232, (S)-N-(3-(2-((1-hydroxy-2-methylpropan-2-yl)oxy)-6-morpholinopyridin-4-yl)-4-methylphenyl)-3-(2,2,2-trifluoroethyl)pyrrolidine-1-carboxamide], the IC50 on human RAF1 is less than 10 nM.
As to `Cc1ccc(NC(=O)N2CC[C@@H](CC(F)(F)F)C2)cc1-c1cc(O[C@H](C)[C@@H](C)O)nc(N2CCOCC2)c1` [Example 233, (S)-N-(3-(2-(((2R,3R)-3-hydroxybutan-2-yl)oxy)-6-morpholinopyridin-4-yl)-4-methylphenyl)-3-(2,2,2-trifluoroethyl)pyrrolidine-1-carboxamide], the IC50 at human RAF1 was less than 10 nM.

The values are drawn from patent US20230081390A1, “INHIBITORS OF RAF KINASES” (Kinnate Biopharma Inc., priority 2019, published 2023).
